# Test results published in the NIST ThermoML archive (doi:10.1016/j.fluid.2014.04.038).
# Several values for one entry are separate records, joined by “and”; a condition that tells them apart may be missing. Identical values can stand only once. Numbers after ± are expanded uncertainties.
# Conditions: Hot wire method
smiles,measurement,setting,value
N#N [nitrogen],thermal conductivity,"321.58 K, 2776.2 kPa, Gas",0.0278 ± 0.0017 W/m/K
same,thermal conductivity,"321.95 K, 2778.7 kPa, Gas",0.02777 ± 0.0017 W/m/K
same,thermal conductivity,"321.99 K, 2778.7 kPa, Gas",0.02793 ± 0.0017 W/m/K
same,thermal conductivity,"322.25 K, 2776.2 kPa, Gas",0.02762 ± 0.0017 W/m/K
same,thermal conductivity,"322.29 K, 2776.2 kPa, Gas",0.02772 ± 0.0017 W/m/K
same,thermal conductivity,"322.61 K, 2776.2 kPa, Gas",0.02762 ± 0.0017 W/m/K
same,thermal conductivity,"323.16 K, 1008.8 kPa, Gas",0.02726 ± 0.0017 W/m/K
same,thermal conductivity,"323.18 K, 1008.8 kPa, Gas",0.02729 ± 0.0017 W/m/K
same,thermal conductivity,"324.06 K, 1008.8 kPa, Gas",0.02748 ± 0.0017 W/m/K
same,thermal conductivity,"324.12 K, 1008.8 kPa, Gas",0.02747 ± 0.0017 W/m/K
same,thermal conductivity,"325.1 K, 1008.8 kPa, Gas",0.0277 ± 0.0017 W/m/K and 0.02772 ± 0.0017 W/m/K
same,thermal conductivity,"325.44 K, 574.1 kPa, Gas",0.02822 ± 0.0017 W/m/K
same,thermal conductivity,"326.18 K, 2705.7 kPa, Gas",0.02794 ± 0.0017 W/m/K
same,thermal conductivity,"326.24 K, 2705.7 kPa, Gas",0.02859 ± 0.0018 W/m/K
same,thermal conductivity,"326.43 K, 4299.5 kPa, Gas",0.02906 ± 0.0018 W/m/K
same,thermal conductivity,"326.51 K, 4299.5 kPa, Gas",0.02914 ± 0.0018 W/m/K
same,thermal conductivity,"326.67 K, 3835.8 kPa, Gas",0.02909 ± 0.0018 W/m/K and 0.02897 ± 0.0018 W/m/K
same,thermal conductivity,"326.72 K, 2705.7 kPa, Gas",0.02848 ± 0.0018 W/m/K
same,thermal conductivity,"326.75 K, 2705.7 kPa, Gas",0.02853 ± 0.0018 W/m/K
same,thermal conductivity,"327.32 K, 1657.7 kPa, Gas",0.02798 ± 0.0017 W/m/K
same,thermal conductivity,"327.57 K, 1657.7 kPa, Gas",0.02789 ± 0.0017 W/m/K
same,thermal conductivity,"327.66 K, 4299.5 kPa, Gas",0.0294 ± 0.0018 W/m/K
same,thermal conductivity,"327.7 K, 4299.5 kPa, Gas",0.02966 ± 0.0018 W/m/K
same,thermal conductivity,"327.84 K, 1209.3 kPa, Gas",0.02782 ± 0.0017 W/m/K
same,thermal conductivity,"327.85 K, 1209.3 kPa, Gas",0.02748 ± 0.0017 W/m/K
same,thermal conductivity,"327.86 K, 3835.8 kPa, Gas",0.0294 ± 0.0018 W/m/K and 0.02906 ± 0.0018 W/m/K
same,thermal conductivity,"328.83 K, 1657.7 kPa, Gas",0.02814 ± 0.0017 W/m/K
same,thermal conductivity,"328.85 K, 1657.7 kPa, Gas",0.02817 ± 0.0017 W/m/K
same,thermal conductivity,"329.15 K, 1209.3 kPa, Gas",0.02785 ± 0.0017 W/m/K
same,thermal conductivity,"329.17 K, 1209.3 kPa, Gas",0.02784 ± 0.0017 W/m/K
same,thermal conductivity,"330.94 K, 2682.6 kPa, Gas",0.02851 ± 0.0018 W/m/K
same,thermal conductivity,"330.96 K, 2682.6 kPa, Gas",0.0287 ± 0.0018 W/m/K
same,thermal conductivity,"332.04 K, 2682.6 kPa, Gas",0.02834 ± 0.0017 W/m/K
same,thermal conductivity,"332.12 K, 2682.6 kPa, Gas",0.02902 ± 0.0018 W/m/K
same,thermal conductivity,"335.72 K, 2657.4 kPa, Gas",0.02849 ± 0.0018 W/m/K
same,thermal conductivity,"335.73 K, 2657.4 kPa, Gas",0.02905 ± 0.0018 W/m/K
same,thermal conductivity,"336.01 K, 4212.3 kPa, Gas",0.02961 ± 0.0018 W/m/K
same,thermal conductivity,"336.02 K, 4212.3 kPa, Gas",0.02949 ± 0.0018 W/m/K
same,thermal conductivity,"336.33 K, 2657.4 kPa, Gas",0.02874 ± 0.0018 W/m/K
same,thermal conductivity,"336.36 K, 2657.4 kPa, Gas",0.02885 ± 0.0018 W/m/K
same,thermal conductivity,"337.13 K, 4212.3 kPa, Gas",0.03001 ± 0.0018 W/m/K and 0.0297 ± 0.0018 W/m/K
same,thermal conductivity,"340.86 K, 2579.4 kPa, Gas",0.02926 ± 0.0018 W/m/K
same,thermal conductivity,"340.87 K, 2579.4 kPa, Gas",0.02913 ± 0.0018 W/m/K
same,thermal conductivity,"341.16 K, 2579.4 kPa, Gas",0.02959 ± 0.0018 W/m/K
same,thermal conductivity,"341.21 K, 2579.4 kPa, Gas",0.02922 ± 0.0018 W/m/K
Cc1ccccc1 [toluene],thermal conductivity,"318.8 K, Liquid",0.1241 ± 0.005 W/m/K
same,thermal conductivity,"328.48 K, Liquid",0.1218 ± 0.0049 W/m/K
same,thermal conductivity,"333.34 K, Liquid",0.1209 ± 0.0049 W/m/K
same,thermal conductivity,"338.23 K, Liquid",0.1195 ± 0.0048 W/m/K
same,thermal conductivity,"341.16 K, Liquid",0.1201 ± 0.0048 W/m/K
same,thermal conductivity,"343.09 K, Liquid",0.1176 ± 0.0047 W/m/K
same,thermal conductivity,"346.01 K, Liquid",0.116 ± 0.0047 W/m/K
same,thermal conductivity,"350.87 K, Liquid",0.1149 ± 0.0046 W/m/K
same,thermal conductivity,"355.71 K, Liquid",0.1151 ± 0.0046 W/m/K
same,thermal conductivity,"365.42 K, Liquid",0.1116 ± 0.0045 W/m/K
same,thermal conductivity,"370.29 K, Liquid",0.1112 ± 0.0045 W/m/K
